Values of other authors, collected in patent publication US9452976B2, “Pactamycin analogs and methods of making thereof” (Oregon State University, priority 2007, dated 2016).

Assays:
[1] = tested on: Gram-positive and Gram-negative bacteria
[2] = reason clinical application was abandoned

For CC(=O)c1cccc(N[C@H]2[C@H](N)[C@]3(NC(=O)O[C@H]3C)[C@@](C)(O)[C@@]2(O)COC(=O)c2c(C)cccc2O)c1 [pactamycate], the “bioactivity of the cyclic derivative formed by attack of C-7 hydroxyl on the carbamoyl carbonyl” value [1] is listed as “inactive”.

In the case of CC[C@]1(NC(=O)N(C)C)[C@@H](N)[C@H](Nc2cccc(C(C)=O)c2)[C@](O)(COC(=O)c2c(C)cccc2O)[C@]1(C)O [7-Deoxypactamycin, 7-deoxypactamycin], the “activity against a number of Gram-positive and Gram-negative bacteria, compared with pactamycin” value ([1]; relative to pactamycin) is listed as “equally active”.

For CC(=O)c1cccc(N[C@H]2[C@H](N)[C@@](NC(=O)N(C)C)([C@H](C)O)[C@@](C)(O)[C@@]2(O)COC(=O)c2c(C)cccc2O)c1 [Pactamycin, pactamycin], the toxicity [2] is listed as “high toxicity”, the anti-tumor activity (tumor) is listed as “strong anti-tumor activity” and the “antibacterial activities against Gram-positive and Gram-negative bacteria” value ([1]; Bhuyan, Appl. Microbiol. 1962) is listed as “potent antibacterial activities”.
